Where two headings read alike, the source gives them in different places.
Key:
in vivo = conditions: male, Sprague-Dawley, rat; for AUC(0-inf): AUC0-inf; for AUC(0-t): AUC0-t; for k el: Kel; for half-life: t1/2
CYP2C8 = target: T1, CYP2C8 (Homo sapiens, UniProt P10632); test: HLM-LC-MS CYP450 inhibition assay, CYP2C8; assay type: in vitro ADME
T1 construct: from tissue; host or cells: human liver microsomes
T1 sequence (P10632 1-490): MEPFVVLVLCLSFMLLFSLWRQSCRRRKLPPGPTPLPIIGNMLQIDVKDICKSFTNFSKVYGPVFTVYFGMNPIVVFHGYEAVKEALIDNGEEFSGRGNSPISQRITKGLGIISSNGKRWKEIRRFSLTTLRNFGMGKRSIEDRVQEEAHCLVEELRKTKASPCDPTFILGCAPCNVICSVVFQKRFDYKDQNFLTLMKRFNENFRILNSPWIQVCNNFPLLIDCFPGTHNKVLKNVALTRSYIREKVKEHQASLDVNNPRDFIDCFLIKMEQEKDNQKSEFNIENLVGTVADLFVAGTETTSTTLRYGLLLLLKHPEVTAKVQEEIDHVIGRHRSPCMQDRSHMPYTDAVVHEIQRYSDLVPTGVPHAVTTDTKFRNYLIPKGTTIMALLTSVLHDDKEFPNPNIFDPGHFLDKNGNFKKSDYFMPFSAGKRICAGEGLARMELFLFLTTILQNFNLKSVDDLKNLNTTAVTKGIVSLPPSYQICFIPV
Procedure: (§4) A sigmoid-shaped curve (Log(inhibitor) vs. Response-Variable slope) was fitted to the data and the IC50 was calculated using GraphPad Prism software.
(§5) This assay used a cocktail of drug-probe substrates that are specific to each isozyme with HLM and LC-MS detection[33][34]. Each test article and reference inhibitor was dissolved in 40% DMSO and 60% acetonitrile (ACN) mixture. […] Substrates were then added to their respective well containing the compound/HLM solution to start the reaction. […] The solution was centrifuged at 4 °C for 30 min at 3,700 rpm and the supernatant was transferred for LC-MS analysis. The concentrations of the metabolites were determined from standard curves using commercially available metabolite standards. Compounds were tested in triplicate. The half maximal inhibitory concentration (IC50) values were determined by plotting the metabolite formation over the logarithm of the compound concentration using Prism 5.0 software (GraphPad Software Inc., San Diego, CA).

BALB/c mice = test: Determination of maximum tolerated dose (MTD) in mice; assay type: in vivo; conditions: mice, 5 exposed
Procedure: (§1) The MTD determination assay was composed of sighting study and main study. For the sighting study of the determination maximum tolerable dose (MTD) of NSC23925b, one of each animal (one female rat, one male rat, one female mouse, and one male mouse) was used at each I.V. and I.P. injection dose level. The starting dose was selected from the fixed dose levels (5, 50, 500, 2000 mg/kg) as a dose expected to produce evident toxicity. The first animal was dosed and observed. Time of appearance, degree, and lasting/recovery time of signs were recorded in details. Afterwards, animals were observed twice on the dosing day and then changed to daily observation. The observation lasted at least 14 days. If the first animal died or appeared impaired, the second animal received a middle dose of the two doses and vice versa. The sighting study was completed when a decision on the starting dose for the main study was made.
(§2) During the main study, a total of five animals of one sex were used for each dose level investigated. The five animals were made up of one animal from the sighting study dosed at the selected dose level together with an additional four animals. Each group received one of the fixed doses by I.V. and I.P. based on the sighting study. If the first animal died or appeared impaired, the second animal received a middle dose of the two doses and vice versa.
(§3) Animals were fasted overnight prior to dosing. Following the period of fasting, the animals were weighed and the dose was calculated according to the body weight. After the animals were administrated a dose volume of 10 mL/kg, food was withheld for another 3–4 hours. Individual weights of animals were determined shortly before the test substance was administered and twice weekly thereafter. Weight changes were calculated and recorded. Animals injected with saline were the control group for the weight alteration.

[1] = as above; assay type: in vivo; conditions: mouse, in vivo
Procedure: as §1, §2, §3

CYP2B6 = target: T2, CYP2B6 (Homo sapiens, UniProt P20813); test: HLM-LC-MS CYP450 inhibition assay, CYP2B6; assay type: in vitro ADME
T2 construct: from tissue; host or cells: human liver microsomes
T2 sequence (P20813 1-491): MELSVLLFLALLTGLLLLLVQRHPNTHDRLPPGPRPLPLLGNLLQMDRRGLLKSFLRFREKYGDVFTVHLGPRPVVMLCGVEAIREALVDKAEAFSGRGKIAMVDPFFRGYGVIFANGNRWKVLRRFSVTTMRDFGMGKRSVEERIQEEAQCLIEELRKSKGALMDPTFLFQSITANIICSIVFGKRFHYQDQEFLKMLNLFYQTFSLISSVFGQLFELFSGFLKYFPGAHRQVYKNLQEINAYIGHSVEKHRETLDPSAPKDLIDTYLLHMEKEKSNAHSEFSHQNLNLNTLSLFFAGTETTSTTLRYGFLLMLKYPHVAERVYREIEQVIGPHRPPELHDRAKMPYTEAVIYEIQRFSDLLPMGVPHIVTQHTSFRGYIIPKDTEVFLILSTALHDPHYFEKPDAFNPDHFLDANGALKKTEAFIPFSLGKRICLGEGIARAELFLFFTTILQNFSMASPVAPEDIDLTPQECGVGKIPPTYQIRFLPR
Procedure: Compounds were tested in triplicate.

CYP2D6 = CYP2D6 (Homo sapiens, UniProt P10635); test: HLM-LC-MS CYP450 inhibition assay, CYP2D6
CYP2D6, sequence (P10635 whole entry): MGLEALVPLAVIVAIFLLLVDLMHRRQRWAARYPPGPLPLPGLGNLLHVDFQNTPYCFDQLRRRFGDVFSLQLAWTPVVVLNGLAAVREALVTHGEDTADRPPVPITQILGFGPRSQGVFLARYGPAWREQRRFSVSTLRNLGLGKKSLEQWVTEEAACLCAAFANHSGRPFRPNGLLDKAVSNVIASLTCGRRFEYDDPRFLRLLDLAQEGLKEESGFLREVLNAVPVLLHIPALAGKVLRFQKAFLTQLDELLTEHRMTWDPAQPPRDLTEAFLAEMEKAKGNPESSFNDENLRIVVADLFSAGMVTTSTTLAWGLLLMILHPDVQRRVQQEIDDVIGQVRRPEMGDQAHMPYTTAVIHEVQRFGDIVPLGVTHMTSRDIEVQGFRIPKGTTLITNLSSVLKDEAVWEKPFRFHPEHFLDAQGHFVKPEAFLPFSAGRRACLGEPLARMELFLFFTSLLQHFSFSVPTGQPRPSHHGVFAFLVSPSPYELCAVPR
Procedure: as §4, §5

SD rats = test: Determination of maximum tolerated dose (MTD) in rats; assay type: in vivo; conditions: SD rats, 5 exposed
Procedure: as §1, §2, §3

[2] = as above; assay type: in vivo; conditions: Sprague-Dawley, in vivo, read-out: tolerated dosage (MTD study)
Procedure: as §1, §2, §3

CYP3A4 = target: T3, CYP3A4 (Homo sapiens, UniProt P08684); test: HLM-LC-MS CYP450 inhibition assay, CYP3A4; assay type: in vitro ADME
T3 construct: from tissue; host or cells: human liver microsomes
T3 sequence (P08684 whole entry): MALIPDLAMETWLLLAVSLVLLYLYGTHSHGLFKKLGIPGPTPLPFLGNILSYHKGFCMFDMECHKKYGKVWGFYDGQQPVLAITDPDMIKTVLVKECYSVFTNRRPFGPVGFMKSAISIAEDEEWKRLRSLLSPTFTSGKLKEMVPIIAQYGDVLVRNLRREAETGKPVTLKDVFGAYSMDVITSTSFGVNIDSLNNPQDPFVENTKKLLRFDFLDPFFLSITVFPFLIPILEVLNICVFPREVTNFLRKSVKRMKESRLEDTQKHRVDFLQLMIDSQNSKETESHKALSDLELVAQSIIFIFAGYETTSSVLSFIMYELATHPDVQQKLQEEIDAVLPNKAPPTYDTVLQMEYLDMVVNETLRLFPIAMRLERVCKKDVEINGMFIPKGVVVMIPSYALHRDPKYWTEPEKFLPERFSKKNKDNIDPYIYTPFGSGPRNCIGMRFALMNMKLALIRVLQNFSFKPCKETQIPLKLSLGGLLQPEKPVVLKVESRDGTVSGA
Procedure: as §4, §5

CYP2C9 = target: T4, CYP2C9 (Homo sapiens, UniProt P11712); test: HLM-LC-MS CYP450 inhibition assay, CYP2C9; assay type: in vitro ADME
T4 construct: from tissue; host or cells: human liver microsomes
T4 sequence (P11712 whole entry): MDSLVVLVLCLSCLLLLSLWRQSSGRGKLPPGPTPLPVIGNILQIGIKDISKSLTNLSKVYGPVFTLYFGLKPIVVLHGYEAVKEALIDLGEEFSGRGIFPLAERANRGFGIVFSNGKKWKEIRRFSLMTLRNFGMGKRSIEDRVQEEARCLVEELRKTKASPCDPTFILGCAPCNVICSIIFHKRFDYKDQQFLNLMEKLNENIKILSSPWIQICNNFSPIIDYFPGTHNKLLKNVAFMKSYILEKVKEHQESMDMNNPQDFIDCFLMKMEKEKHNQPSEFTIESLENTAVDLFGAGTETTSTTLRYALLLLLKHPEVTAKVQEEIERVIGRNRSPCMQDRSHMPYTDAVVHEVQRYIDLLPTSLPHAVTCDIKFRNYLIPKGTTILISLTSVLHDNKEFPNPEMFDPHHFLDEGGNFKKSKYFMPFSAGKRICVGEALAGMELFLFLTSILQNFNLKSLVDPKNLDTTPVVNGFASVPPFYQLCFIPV
Procedure: as §4, §5

COc1ccc(-c2cc(C(O)C3CCCCN3)c3ccccc3n2)cc1 (centres unmarked) [NSC23925b, (2-(4-methoxyphenyl)-4-quinolinyl)(2-piperidinyl)methanol]
Cmax (in vivo; ip, 5 mg/kg): 128 ± 44.3 ng/mL | AUC(0-inf) (in vivo; ip, 5 mg/kg): 1990 ± 855 ng·h/mL | AUC(0-t) (in vivo; ip, 5 mg/kg): 1390 ± 173 ng·h/mL | k el (in vivo; ip, 5 mg/kg): 2.29e-05 s⁻¹ | half-life (in vivo; ip, 5 mg/kg): 9.24 ± 3.77 h | Tmax (in vivo; ip, 5 mg/kg, tmax): ~2.17 h | AUC(0-inf) (in vivo; iv, 2.5 mg/kg): 902 ± 57.4 ng·h/mL | AUC(0-t) (in vivo; iv, 2.5 mg/kg): 766 ± 51.9 ng·h/mL | clearance (in vivo; iv, 2.5 mg/kg, CL): 46.3 ± 3.06 mL/min/kg | k el (in vivo; iv, 2.5 mg/kg): 2.18e-05 s⁻¹ | Vd (in vivo; iv, 2.5 mg/kg, VdSS): 32.4 ± 3.06 L/kg | half-life (in vivo; iv, 2.5 mg/kg): 8.86 ± 0.541 h | CYP inhibitor class (CYP2C8): weak (IC50 values of >10 μM) | IC50 (CYP2C8; substrate paclitaxel 10 μM, 6α-hydroxylation, read-out: Compound IC50): > 10 µM | Number of Death (BALB/c mice; I.P., 68.80 mg/kg, male): 0 | Number of Death (BALB/c mice; I.P., 93.75 mg/kg, female): 2 | Number of Death (BALB/c mice; I.V., 24.70 mg/kg, female): 0 | Number of Death (BALB/c mice; I.V., 24.70 mg/kg, male): 0 | MTD ([1]; BALB/c, ip, male mice, I.P., all five tolerated, read-out: tolerated dosage (MTD study)): 68.8 mg/kg | MTD ([1]; both sexes, BALB/c (mice), Sprague-Dawley (rats), intraperitoneal, intravenous, rodents (mice and rats), I.P./I.V., read-out: tolerated dosage according to the MTD results): 24.7 to 93.8 mg/kg | MTD ([1]; both sexes, BALB/c, iv, female and male mice, I.V., health conditions not significantly influenced, read-out: tolerated dosage (MTD study)): 24.7 mg/kg | CYP inhibitor class (CYP2B6; bupropion): moderate (1–10 μM) | IC50 (CYP2B6; substrate bupropion 70 μM, hydroxylation, read-out: Compound IC50): 8.59 µM | IC50 (CYP2D6; Compound IC50, HLM, substrate bufuralol 10 μM): 1.41 µM | CYP inhibitor class (CYP2D6; HLM, bufuralol): moderate (1–10 μM) | Number of Death (SD rats; I.P., 33.10 mg/kg, male): 0 | Number of Death (SD rats; I.P., 47.20 mg/kg, female): 1 | Number of Death (SD rats; I.V., 38.80 mg/kg, male): 0 | Number of Death (SD rats; I.V., 47.20 mg/kg, female): 1 | MTD ([2]; iv, female rats, I.V., one female rat moribund): 47.2 mg/kg | MTD ([2]; rat, ip, male rats, I.P., all in good status): 33.1 mg/kg | MTD ([2]; rat, iv, male rats, I.V.): 38.8 mg/kg | CYP inhibitor class (CYP3A4): weak (IC50 values of >10 μM) | IC50 (CYP3A4; substrate midazolam 5 μM, 1-hydroxylation, read-out: Compound IC50): > 10 µM | IC50 (CYP3A4; substrate not specified, read-out: IC50): > 10 µM | IC50 (CYP3A4; substrate testosterone 80 μM, 6ß-hydroxylation, read-out: Compound IC50): > 10 µM | CYP inhibitor class (CYP2C9): weak (IC50 values of >10 μM) | IC50 (CYP2C9; substrate diclofenac 10 μM, 4-hydroxylation, read-out: Compound IC50): > 10 µM
